According to US11414425B2 (priority 2018, dated 2022):

Tests used:
[1] = target: α5β3γ2 GABAA receptors (Homo sapiens, UniProt P18507+P31644); assay: [3H]Ro15-1788 binding, membranes of Ltk cells stably expressing α5β3γ2 GABAA receptors; details: ranges; inhibition of [3H]Ro15-1788 binding
[2] = target: T1, GABAA receptors (α5β2γ2) (Homo sapiens, UniProt P18507+P31644); assay: Positive allosteric modulator activity: potentiation of EC20 GABA current in oocytes; assay type: cell-based; details: read-out: GABA α5 Functional Data (potentiation of EC20 GABA); @ 100 nM; ranges
T1 construct: expressed in transfected cells
T1 sequence (P31644 32-462): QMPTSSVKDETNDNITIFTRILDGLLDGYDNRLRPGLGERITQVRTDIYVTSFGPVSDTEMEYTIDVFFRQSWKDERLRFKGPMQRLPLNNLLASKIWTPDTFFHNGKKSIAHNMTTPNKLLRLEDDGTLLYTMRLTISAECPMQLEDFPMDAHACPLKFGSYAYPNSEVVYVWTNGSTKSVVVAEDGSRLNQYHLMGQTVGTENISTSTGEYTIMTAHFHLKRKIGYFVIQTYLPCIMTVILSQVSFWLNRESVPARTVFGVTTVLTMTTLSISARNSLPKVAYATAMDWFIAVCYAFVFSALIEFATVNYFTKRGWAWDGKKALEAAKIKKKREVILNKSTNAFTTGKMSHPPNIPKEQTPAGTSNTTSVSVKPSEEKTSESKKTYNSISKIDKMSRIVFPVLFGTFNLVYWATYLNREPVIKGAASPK
T1 sequence (P47870 25-512, further chain): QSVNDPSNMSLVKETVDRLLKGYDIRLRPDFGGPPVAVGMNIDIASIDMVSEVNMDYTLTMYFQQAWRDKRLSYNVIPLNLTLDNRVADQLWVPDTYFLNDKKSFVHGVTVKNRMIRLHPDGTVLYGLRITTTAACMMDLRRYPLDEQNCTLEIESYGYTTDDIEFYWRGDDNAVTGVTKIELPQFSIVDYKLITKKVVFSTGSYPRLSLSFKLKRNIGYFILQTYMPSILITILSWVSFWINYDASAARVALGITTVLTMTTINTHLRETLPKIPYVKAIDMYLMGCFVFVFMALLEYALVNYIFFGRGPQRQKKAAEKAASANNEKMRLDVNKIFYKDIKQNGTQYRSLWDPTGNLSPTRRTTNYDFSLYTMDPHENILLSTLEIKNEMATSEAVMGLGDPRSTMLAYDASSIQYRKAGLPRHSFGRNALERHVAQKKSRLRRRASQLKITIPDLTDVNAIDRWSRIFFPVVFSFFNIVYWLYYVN
T1 sequence (P18507 40-475): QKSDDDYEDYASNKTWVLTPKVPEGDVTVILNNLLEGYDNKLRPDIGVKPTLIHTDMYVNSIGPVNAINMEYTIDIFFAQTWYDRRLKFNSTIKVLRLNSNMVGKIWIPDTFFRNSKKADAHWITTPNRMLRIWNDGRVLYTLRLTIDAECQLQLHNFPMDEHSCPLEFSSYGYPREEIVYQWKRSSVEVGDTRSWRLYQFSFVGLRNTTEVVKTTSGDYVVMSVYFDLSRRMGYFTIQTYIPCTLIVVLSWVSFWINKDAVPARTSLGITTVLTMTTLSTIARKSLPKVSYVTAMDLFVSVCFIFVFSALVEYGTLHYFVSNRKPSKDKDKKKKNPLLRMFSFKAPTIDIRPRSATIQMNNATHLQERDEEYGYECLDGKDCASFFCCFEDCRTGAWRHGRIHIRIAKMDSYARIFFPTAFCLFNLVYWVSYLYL
Method: On day 1, 1 ng/32 nL of GABAA α5β2γ2 cDNA was injected into one oocyte. Test starts on day 2. The cDNA injected to the oocytes was a mix of alpha, beta and gamma, their ratio is 1:1:10 (by weight) and the total weight of the mixed 3 subunits to be injected in one oocyte was 1 ng in 32 nl volume. The injected oocytes can also be tested on day 3. In such case, the cDNA amount injected to the oocytes should be reduced by 20%.
1). 8 oocytes were placed in 8 chambers of OpusXpress and superfused with Modified Barth's Saline (MBS) at 3 mL/min. Glass electrodes back-filled with 3M KCl (0.5-3 megaohms) were used.
1). New oocytes were used to run new test.
3). […] Oocytes were washed with MBS for 5-10 min.
4). […] Itest was divided by IGABA to obtain potentiation (%).
Test Compounds at Multiple Doses • 1). Repeat the above steps 1), 2) and 3) in the control test. • 2). […] Divide Itest by IGABA to obtain potentiation (%). • 3). Discard all tested oocytes, new oocytes were used and the above steps 1) and 2) were repeated to test second concentration of the same compound. Each oocyte was used for only one concentration test for a single test compound. The steps were repeated for other test compounds.

α5β3γ2 GABAA receptors, sequence (P31644 32-462): as the sequence (P31644 32-462) above
α5β3γ2 GABAA receptors, sequence (P28472 26-473 partner): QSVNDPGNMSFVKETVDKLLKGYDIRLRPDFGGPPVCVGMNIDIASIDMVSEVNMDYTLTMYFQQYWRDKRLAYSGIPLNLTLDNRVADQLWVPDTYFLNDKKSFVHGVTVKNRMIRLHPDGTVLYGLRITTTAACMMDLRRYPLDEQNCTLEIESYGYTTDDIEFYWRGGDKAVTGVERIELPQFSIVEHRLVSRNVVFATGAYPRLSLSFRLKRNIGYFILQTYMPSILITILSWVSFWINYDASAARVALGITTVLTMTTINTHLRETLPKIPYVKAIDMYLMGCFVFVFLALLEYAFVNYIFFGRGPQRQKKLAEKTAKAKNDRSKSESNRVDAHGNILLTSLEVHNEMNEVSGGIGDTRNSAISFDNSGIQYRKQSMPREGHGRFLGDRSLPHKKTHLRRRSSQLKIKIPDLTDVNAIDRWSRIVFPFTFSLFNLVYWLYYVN
α5β3γ2 GABAA receptors, sequence (P18507 40-475): as the sequence (P18507 40-475) above

SMILES | Ki [1] [nM] | activation at 0.1 µM [2] [%]
COc1ccc2c(c1)-n1nncc1Cc1c(C3=NCC(c4ccccn4)O3)ncn1-2 (stereo not shown) [Compound 628] | < 100 | 20 to 50
COc1ccc2c(c1)-n1nncc1Cc1c(C3=NCC(c4ccncc4)O3)ncn1-2 (stereo not shown) [Compound 630] | < 100 | 20 to 50
COc1cccc(C2CN=C(c3ncn4c3Cc3cnnn3-c3cc(Cl)ccc3-4)O2)n1 (stereo not shown) [Compound 631] | < 100 | 5 to 20
COc1ccc2c(c1)-n1nncc1Cc1c(C3=NCC(c4ncccc4OC)O3)ncn1-2 (stereo not shown) [Compound 632] | < 100 | 5 to 20
COCc1nnn2c1Cc1c(C#Cc3ccc(OC)nc3)ncn1-c1ccc(Cl)cc1-2 [Compound 633] | < 100 | 20 to 50
COCc1nnn2c1Cc1c(C3=NC[C@H](c4ccc(Cl)cc4)O3)ncn1-c1ccc(Cl)cc1-2 [Compound 635] | < 100 | 5 to 20
COCc1nnn2c1Cc1c(C3=NC[C@H](c4ccc(Cl)cc4)O3)ncn1-c1ccc(OC)cc1-2 [Compound 636] | < 100 | 5 to 20
COCc1nnn2c1Cc1c(C#Cc3ccc(OC)cn3)ncn1-c1ccc(Cl)cc1-2 [Compound 637] | < 100 | 20 to 50
CCc1cncc(C#Cc2ncn3c2Cc2c(COC)nnn2-c2cc(Cl)ccc2-3)c1 [Compound 638] | < 100 | > 50
COCc1nnn2c1Cc1c(C#Cc3cncc(C)c3)ncn1-c1ccc(Cl)cc1-2 [Compound 639] | < 100 | 20 to 50
COCc1nnn2c1Cc1c(C#CC(C)(C)C)ncn1-c1ccc(Cl)cc1-2 [Compound 640] | < 100 | 20 to 50
COCc1nnn2c1Cc1c(C#Cc3ccc(OC)nc3)ncn1-c1ccc(OC)cc1-2 [Compound 641] | < 100 | 20 to 50
COCc1nnn2c1Cc1c(C#Cc3cnc(OC)s3)ncn1-c1ccc(Cl)cc1-2 [Compound 644] | < 100 | 20 to 50
COc1ccc2c(c1)-n1nncc1Cc1c(C#Cc3c[nH]nc3OC)ncn1-2 [Compound 663] | < 100 | 20 to 50
Cc1ncc(C#Cc2ncn3c2Cc2cnnn2-c2cc(Cl)ccc2-3)n1C [Compound 666] | < 100 | 20 to 50
COc1ccc2c(c1)-n1nncc1Cc1c(C#Cc3cnc(C)n3C)ncn1-2 [Compound 667] | < 100 | > 50
COc1ccc2c(c1)-n1nncc1Cc1c(C#Cc3cnc(C)[nH]3)ncn1-2 [Compound 668] | < 100 | > 50
COc1ccc2c(c1)-n1nncc1Cc1c(C#Cc3ccnn3C)ncn1-2 [Compound 669] | < 100 | > 50
COc1ccc2c(c1)-n1nncc1Cc1c(C#Cc3ccn(C)n3)ncn1-2 [Compound 670] | < 100 | > 50
COCc1nnc2n1Cc1c(C#Cc3cnc(C)n3C)ncn1-c1ccc(Cl)cc1-2 [Compound 671] | < 100 | > 50
COCc1nnc2n1Cc1c(C#Cc3cnc(C)n3C)ncn1-c1ccc(OC)cc1-2 [Compound 672] | < 100 | > 50
COCc1nnc2n1Cc1c(C#Cc3cnc4occc4c3)ncn1-c1ccc(OC)cc1-2 [Compound 674] | < 100 | 5 to 20
COCc1nnc2n1Cc1c(C#Cc3ccn4ccnc4c3)ncn1-c1ccc(OC)cc1-2 [Compound 675] | < 100 | > 50
COCc1nnc2n1Cc1c(C#Cc3ccc(=O)n(C)c3)ncn1-c1ccc(OC)cc1-2 [Compound 676] | < 100 | 5 to 20
COCc1nnc2n1Cc1c(C#Cc3ccc(=O)n(C)c3)ncn1-c1ccc(Cl)cc1-2 [Compound 677] | < 100 | 5 to 20
COCc1nnc2n1Cc1c(C#Cc3ccc4nccn4c3)ncn1-c1ccc(Cl)cc1-2 [Compound 678] | < 100 | 20 to 50
